± gives the expanded uncertainty stated by the source.
Settings: Crystal; DTA

- Normal melting temperature: 180.00 ± 1.1 °C
Structure (SMILES): CCN1CCN(C(=O)N[C@H](C(=O)N[C@H]2C(=O)N3C(C(=O)[O-])=C(CSc4nnnn4C)CS[C@@H]23)c2ccc(O)cc2)C(=O)C1=O.[Na+]

Reference: the NIST ThermoML archive (doi:10.1021/je800837z)
